Read-outs that look alike come from different tables or passages of the source.
Columns and labels:
[1] = test system: γ-IFN; assay: PHA-induced γ-IFN production; type: cell-based; conditions: preliminary data
[2] = test system: mouse spleen lymphocytes (MSL); assay: Mouse spleen lymphocyte proliferation to Con A; type: cell-based
Description: (§1) In vitro: Both human peripheral blood lymphocytes (HPBL) and mouse spleen lymphocytes (MSL) were employed. […] For HPBL transformation, PHA and PWM were used at 0.5 μg/ml. For MSL transformation, Con A was used at 0.5 μg/ml, phytohemagglutinin (PHA, Murex Diagnostics, Atlanta, Ga.) at 0.5 μg/ml and lipopolysaccharide endotoxin (LPS, Sigma, St. Louis, Mo.) at 10 μg/ml.
(§2) They were cultured in microwell plates at 1.5×10^6 cells/ml of minimal essential media (MEM, Gibco Labs, Grand Island, N.Y.) with 5% fetal calf serum (FCS, Hyclone Labs, Logan, Utah) and tested for their proliferative response to mitogens as measured by incorporation of (^3 H) tritiated thymidine (New England Nuclear, Wilmington Del., […]; 2.5 μCi/ml) during a terminal pulse followed by liquid scintillation spectrometry.

[3] = test system: CD8+ lymphocytes; assay: PHA response of CD8+ enriched human lymphocytes; type: cell-based; conditions: MIMP 1-200 μg/ml, 3 donors, p <0.01
Excerpt: (§3) Human CD4+ and CD8+ lymphocyte subsets were obtained from normal controls using commercial panning techniques (Applied Immune Sciences, Santa Clara, Calif.).
(§4) Human peripheral blood lymphocytes are on average approximately 80% T lymphocytes and 20% B lymphocytes and of the T lymphocytes, 2/3 are of the CD4+ helper/inducer phenotype and 1/3 are the CD8+ suppressor/cytotoxic phenotype. Enrichment of CD4+ T cells or CD8+ T cells can be achieved through reduction of the other phenotype (>98%) removal using adherence to monoclonal antibody-coated flasks (panning).

[4] = test system: human peripheral blood lymphocytes (HPBL); assay: Reversal of suppression of HPBL PHA response by HIV gp41 peptide, interferon α and PGE2; type: cell-based; conditions: for effect on gp41 peptide-suppressed PHA proliferation: MIMP 0.1-100 μg/ml
Excerpt: A 17 amino acid sequence from the gp41 portion of the gp16O peptide of the human immunodeficiency virus (HIV) was synthesized and kindly provided to us by M. Strand (Johns Hopkins University, Baltimore, Md.) (Reugg and Strand, 1990).
Prostaglandin E2 was obtained from Sigma Chemicals (St. Louis, Mo.) and recombinant interferon-α (IFNα, Intron A) was obtained from Schering Corp. (Kenilworth, N.J.).
A synthetic 17 amino acid peptide representing the immunosuppressive site of the intramembranous gp41 portion of the human immunodeficiency virus (HIV) was tested on lymphocytes from controls. […] The effect of MIMP from 0.1-100 μg/ml was examined in combination with varying degrees of inhibition by the peptide.
Virus infections are associated with depressed lymphoproliferative responses.

[5] = test system: anti-HBs; assay: Anti-HBs responses in immunocompromised irradiated DBA/2 mice (EIA); type: in vivo; conditions: for anti-HBs, Day 21: p < 0.01
Description: Experimental mice were irradiated at a dose rate of 25 rad/min (1 rad=0.01 Gy) using a ^60 Coγ beam source for four minutes. Data represent the average of ten animals in each group.
Serum specimens from immunized mice were tested for the presence of anti-HBs in an enzyme immunoassay (EIA) using the diagnostic kits of Roche Diagnostica as per the manufacturer's instructions. The anti-HBs EIA kit (Roche), has a sensitivity of <10 IU/1.
Antibody concentration was determined with the help of calibration curves designed on the basis of the results of anti-HBs detection in standard serum panel (Roche Diagnostica) with the concentrations, as follows: 10 IU/l; 50 IU/l; 100 IU/l and 150 IU/l. The results of the two experiments were used for the calculation of mean values.
In a second set of experiments, the effect of MIMP on the induction of a specific immune response to HBsAg in immunocompromised DBA/2 mice subjected to ionizing radiation was analyzed using the same vaccination schemes as set forth for the control DBA/2.

[6] = test system: CD4+ lymphocytes; assay: PHA response of CD4+ enriched human lymphocytes; type: cell-based; conditions: MIMP 1-200 μg/ml, 3 donors, p <0.01
Excerpt: as §3, §4

[7] = Further set: percent hydrolysis by 5'-nucleotidase (Table 1B); type: in vitro ADME, Crotalus atrox; conditions: rattlesnake, 20 minutes incubation, 200 μl
Description: (§5) Nucleotide samples (40-60 nmoles) were incubated at 37° C. for 10 minutes with 0.02 units 5'-nucleotidase in a total volume of 100 μl containing […] HEPES, pH 7.3 and […] MgCl2. […] Phosphate was determined by the absorbance of 820 nm. Blanks consisting of nucleotide but no enzyme were tested in parallel to correct for non-enzymatic hydrolysis.
The protocol was as hereinabove except that the first incubation was for 20 minutes in a total volume of 200 μl, 0.1 mM HEPES and 10 mM MgCl2. The percent hydrolysis of nucleotides was performed in duplicate for each assay.

[8] = test system: human peripheral blood lymphocytes (HPBL); assay: Response of normal HPBL to PHA (tritiated thymidine incorporation); type: cell-based; conditions: 0.1-100 μg/ml; FIG. 1
Description: as §1, §2

[9] = test system: human peripheral blood lymphocytes (HPBL); assay: PHA responses of HPBL from aged and HIV-infected individuals; type: cell-based; conditions: 100 μg/ml
Description: The human donors included 22 healthy controls (ages ranging from 20-50), 24 aged individuals (mean age 84 years, ±1), 8 HIV-infected pre-AIDS patients (CDC Class II-mean CD4 count 544), and 8 AIDS patients (mean CD4 count 40).
FIG. 7 depicts the PHA responses of these aged and HIV-infected individuals and the effect of stimulation with 100 μg/ml of MIMP compared to normal controls (C).

[10] = in vitro; type: in vitro ADME, Crotalus atrox; conditions: rattlesnake, pH 7.3; 0.02 units 5'-nucleotidase, 37° C., 10 minutes; four experiments; read-out: Hydrolysis (%)
Description: as §5

[11] = test system: influenza virus; type: in vivo, NMRI mice; conditions: for % mortality: Table 7, 200 μg, i.n.
[12] = scheme 6: Radiation + scheme N2 (HBsAg + MIMP per os)
[13] = scheme 7: Radiation + scheme N3 (HBsAg + MIMP i.p. then per os)

Which results are given for `COP(=O)(O)OC[C@H]1O[C@@H](n2cnc3c(=O)[nH]cnc32)[C@H](O)[C@@H]1O` [Me-IMP, Methyl-5'-inosine-monophosphate]?
effect on PHA-induced γ-IFN [1]: only a small effect; relative potency, in vitro mouse lymphocyte proliferation [2]: most potent; proliferative responses of MSL to Con A ([2]; 0.1, 1, 10, 100 μg/ml, Con A 0.5 μg/ml): stimulated the proliferative responses; PHA response of CD8+ lymphocytes [3]: significantly augmented; effect on gp41 peptide-suppressed PHA proliferation ([4]; inhibition more severe (>50%)): not significant; effect on gp41 peptide-suppressed PHA proliferation ([4]; peptide-induced suppression less than 50%): restored the proliferative responses to near-normal ranges; effect on rIFN-α inhibition of PHA response ([4]; MIMP 1, 10, 100 μg/ml, 10 and 100 units/ml IFN α): reverse the inhibition when it is moderate; effect on PGE2 inhibition of PHA response ([4]; MIMP 1-100 μg/ml, PGE2 10^-5 M): reverse the inhibition; anti-HBs, Day 14 [5, 12]: < 10 IU/1; anti-HBs, Day 21 [5, 12]: 100 IU/1; anti-HBs, Day 14 [5, 13]: < 10 IU/1; anti-HBs, Day 21 [5, 13]: 100 IU/1; PHA response of CD4+ lymphocytes [6]: significantly augmented; metabolised at 20 min ([7]; read-out: Percent hydrolysis by 5'-nucleotidase, Assay 1): 1.5%; metabolised at 20 min ([7]; read-out: Percent hydrolysis by 5'-nucleotidase, Assay 2): 2.2%; metabolised at 20 min ([7]; read-out: Percent hydrolysis by 5'-nucleotidase, Assay 3): 2.6%; relative activity on HPBL response to PHA [8]: more active; response of lymphocytes to MIMP in presence of PHA ([9]; 8 AIDS patients): no response; response of lymphocytes to MIMP in presence of PHA ([9]; 8 HIV-infected (ARC) individuals): significant response; response of lymphocytes to MIMP in presence of PHA ([9]; 9 aged patients (Ag-)): markedly depressed responses to PHA and also to MIMP; response of lymphocytes to MIMP in presence of PHA ([9]; 15 aged patients (Ag+)): normal PHA responses and responses to MIMP; response of lymphocytes to MIMP in presence of PHA ([9]; 22 controls): normal PHA and MIMP responses; metabolised at 10 min [10]: 2.1%; % mortality ([11]; -1 h): 80%; % mortality ([11]; -1 d): 60%; number of survivors and mean survival time (MST) ([11]; mouse, in vivo): increased the number of survivors and mean survival time; survival and MST ([11]; mouse, in vivo): increased survival and MST
